These results are taken from ChEMBL document CHEMBL1131784, “The design and synthesis of ALS inhibitors from pharmacophore models” (Bioorg Med Chem Lett, 1999).

This test has as its target T1, Acetolactate synthase, chloroplastic (Arabidopsis thaliana, UniProt P17597).
T1 sequence (P17597 whole entry): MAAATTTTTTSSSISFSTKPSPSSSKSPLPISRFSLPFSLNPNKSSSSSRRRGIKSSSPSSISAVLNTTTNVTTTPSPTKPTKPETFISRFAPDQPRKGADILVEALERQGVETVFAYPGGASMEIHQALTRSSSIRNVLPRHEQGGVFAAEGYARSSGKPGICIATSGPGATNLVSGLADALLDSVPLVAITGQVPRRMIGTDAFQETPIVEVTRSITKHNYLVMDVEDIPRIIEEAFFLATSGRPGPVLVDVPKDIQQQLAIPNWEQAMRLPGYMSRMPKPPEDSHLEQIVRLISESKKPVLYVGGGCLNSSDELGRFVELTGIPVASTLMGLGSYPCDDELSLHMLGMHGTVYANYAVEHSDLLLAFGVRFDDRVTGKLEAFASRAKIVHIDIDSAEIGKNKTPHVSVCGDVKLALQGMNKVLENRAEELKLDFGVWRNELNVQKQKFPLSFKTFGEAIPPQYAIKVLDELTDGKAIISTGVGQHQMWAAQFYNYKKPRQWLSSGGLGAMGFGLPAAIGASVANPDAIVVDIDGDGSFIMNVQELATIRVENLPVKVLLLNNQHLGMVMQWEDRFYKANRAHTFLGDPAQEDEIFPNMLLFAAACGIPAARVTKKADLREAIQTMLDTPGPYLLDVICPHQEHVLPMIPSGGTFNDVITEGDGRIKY
The test can be described thus: Inhibitory activity against Acetolactate synthase (ALS) enzyme by using the rape-root growth method.

For the compound `O=C(OCn1ccc(=O)[nH]c1=O)c1ccc(F)cc1`, the IC50 is recorded as 55.86 p.p.m.

The compound `COc1ccc(C(=O)OCn2ccc(=O)[nH]c2=O)cc1` yielded an IC50 of more than 100 p.p.m.

The compound `O=C(OCn1ccc(=O)[nH]c1=O)c1c(Cl)cc(C(F)(F)F)cc1Cl` came in with an IC50 of more than 100 p.p.m.

As for `Cc1cc(C)nc(NS(=O)(=O)c2cc(Cl)ccc2Cl)n1`, the IC50 (read-out: IC50) stood at 33 µM.

With `COc1ccccc1C(=O)OCn1ccc(=O)[nH]c1=O`, the IC50 was more than 100 p.p.m.

Compound `Cc1cnc(NS(=O)(=O)c2cc(Cl)ccc2Cl)s1` displayed an IC50 of more than 0.000309 M l-1.

`COc1cc(Cl)nc(NS(=O)(=O)c2ccc(F)cc2)n1`: the IC50 was 0.000111 M l-1.

On to `Cc1ccnc(NS(=O)(=O)c2ccc(Br)cc2)n1`, for which the IC50 (read-out: IC50) is 58.9 µM.

For `O=C(OCn1ccc(=O)[nH]c1=O)c1ccc(Cl)cc1`, the IC50 stood at 51.29 p.p.m.

For the compound `Cc1ccnc(NS(=O)(=O)c2cc(Cl)ccc2Cl)n1`, under “read-out: IC50”, the IC50 was found to be 97.2 µM.

As to `O=C(OCn1ccc(=O)[nH]c1=O)c1ccc(Br)cc1`, the IC50 is 55.38 p.p.m.

In turn, `Cc1ccnc(NS(=O)(=O)c2ccccc2[N+](=O)[O-])n1` had an IC50 of 0.000287 M l-1.

`O=C(OCn1ccc(=O)[nH]c1=O)c1ccc(I)cc1` showed an IC50 of more than 100 p.p.m.

In turn, `O=C(OCn1ccc(=O)[nH]c1=O)c1ccc([N+](=O)[O-])cc1` had an IC50 of more than 100 p.p.m.

As to `Cc1cccc(C(=O)OCn2ccc(=O)[nH]c2=O)c1`, the IC50 is 16.04 p.p.m.

For the compound `Cc1ccnc(NS(=O)(=O)c2ccc(F)cc2)n1`, the IC50 (read-out: IC50) amounted to 38.9 µM.

For the compound `O=S(=O)(Nc1nccs1)c1cc(Cl)ccc1Cl`, the IC50 (read-out: IC50) turned out to be 84.7 µM.

With `Cc1ccc(NS(=O)(=O)c2ccc(F)cc2)nc1`, the IC50 is 0.000152 M l-1.

Compound `O=C(OCn1ccc(=O)[nH]c1=O)c1ccccc1` showed an IC50 of 55.36 p.p.m.
